Experimental data from patent US20250353864A1, “INDAZOLE CONTAINING MACROCYCLES AND THEIR USE” (BLOSSOMHILL THERAPEUTICS, INC., priority 2022, published 2025).

What was measured:
Assay type in all cases: biochemical
[1] = molecular target: EGFR WT (Homo sapiens (Human), UniProt P00533); assay: HotSpot radiometric kinase assay (Reaction Biology), EGFR WT; details: 10 μM ATP
Description: (§1) Biochemical Assays for Inhibition of Wild-Type and Mutant EGFRs
(§2) Briefly, specific kinase/substrate pairs along with required cofactors were prepared in reaction buffer; 20 mM Hepes pH 7.5, 10 mM […], 1 mM EGTA, 0.02% Brij35, 0.02 mg/ml BSA, 0.1 mM Na3VO4, 2 mM DTT, 1% DMSO. Compounds were delivered into the reaction, followed […] later by addition of a mixture of ATP (Sigma, St. Louis MO) and ^33P ATP (Perkin Elmer, Waltham MA) to a final concentration of 10 μM. Reactions were carried out at room temperature for 120 min, followed by spotting of the reactions onto P81 ion exchange filter paper (Whatman Inc., Piscataway, NJ). Unbound phosphate was removed by extensive washing of filters in 0.75% phosphoric acid. […] IC50 values and curve fits were obtained using Prism (GraphPad Software).

[2] = molecular target: EGFR (D770_N771insNPG) (Homo sapiens (Human), UniProt P00533, INS770NPG); assay: HotSpot radiometric kinase assay, EGFR (D770_N771insNPG); details: 10 μM ATP, read-out: EGFR (Δ770_N771insNPG) IC50
Description: as §1, §2

[3] = molecular target: EGFR Δ746-750 mutant (Homo sapiens (Human), UniProt P00533, DEL746-750); assay: HotSpot radiometric kinase assay, EGFR Δ746-750 mutant; details: 10 μM ATP
Description: as §1, §2

[4] = molecular target: EGFR Δ746-750/C797S mutant (Homo sapiens (Human), UniProt P00533, C797S/DEL746-750); assay: HotSpot radiometric kinase assay, EGFR Δ746-750/C797S mutant; details: 10 μM ATP
Description: as §1, §2

[5] = molecular target: EGFR L858R mutant (Homo sapiens (Human), UniProt P00533, L858R); assay: HotSpot radiometric kinase assay, EGFR L858R mutant; details: 10 μM ATP
Description: as §1, §2

[6] = molecular target: EGFR L858R/T790M mutant (Homo sapiens (Human), UniProt P00533, L858R/T790M); assay: HotSpot radiometric kinase assay, EGFR L858R/T790M mutant; details: 10 μM ATP
Description: as §1, §2

[7] = molecular target: EGFR L858R/T790M/C797S mutant (Homo sapiens (Human), UniProt P00533, C797S/L858R/T790M); assay: HotSpot radiometric kinase assay, EGFR L858R/T790M/C797S mutant; details: 10 μM ATP
Description: as §1, §2

Chain of EGFR WT (P00533 25-1210): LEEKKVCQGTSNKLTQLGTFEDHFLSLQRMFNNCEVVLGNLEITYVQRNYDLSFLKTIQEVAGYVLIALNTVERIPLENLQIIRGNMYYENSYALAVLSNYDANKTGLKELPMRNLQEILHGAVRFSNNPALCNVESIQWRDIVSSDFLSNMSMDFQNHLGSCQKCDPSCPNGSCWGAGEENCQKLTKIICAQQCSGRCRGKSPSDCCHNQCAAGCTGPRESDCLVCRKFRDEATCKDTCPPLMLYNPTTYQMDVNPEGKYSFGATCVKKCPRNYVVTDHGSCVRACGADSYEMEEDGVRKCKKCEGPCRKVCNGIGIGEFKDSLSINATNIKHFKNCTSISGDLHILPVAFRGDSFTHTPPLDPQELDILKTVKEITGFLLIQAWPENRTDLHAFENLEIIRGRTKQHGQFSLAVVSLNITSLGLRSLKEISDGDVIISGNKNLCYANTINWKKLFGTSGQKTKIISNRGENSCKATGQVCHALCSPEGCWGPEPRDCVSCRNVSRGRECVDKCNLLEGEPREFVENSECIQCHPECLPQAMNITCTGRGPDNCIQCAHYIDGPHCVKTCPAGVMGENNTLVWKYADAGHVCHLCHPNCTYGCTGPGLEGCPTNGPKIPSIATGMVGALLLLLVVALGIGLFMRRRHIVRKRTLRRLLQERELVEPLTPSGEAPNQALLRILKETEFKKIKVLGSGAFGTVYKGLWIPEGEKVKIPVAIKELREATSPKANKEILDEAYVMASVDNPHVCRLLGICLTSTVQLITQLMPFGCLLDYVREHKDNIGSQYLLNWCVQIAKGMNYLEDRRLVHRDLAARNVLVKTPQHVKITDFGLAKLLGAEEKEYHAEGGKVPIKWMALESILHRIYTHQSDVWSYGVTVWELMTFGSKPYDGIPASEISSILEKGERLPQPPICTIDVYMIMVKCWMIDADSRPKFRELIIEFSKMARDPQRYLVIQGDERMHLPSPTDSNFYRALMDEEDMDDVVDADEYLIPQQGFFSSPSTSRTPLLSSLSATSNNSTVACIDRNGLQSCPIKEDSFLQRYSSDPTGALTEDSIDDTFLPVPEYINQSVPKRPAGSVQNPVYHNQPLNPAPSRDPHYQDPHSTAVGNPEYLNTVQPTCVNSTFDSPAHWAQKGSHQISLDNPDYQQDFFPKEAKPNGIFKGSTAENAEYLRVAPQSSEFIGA
Chain of EGFR L858R/T790M mutant (P00533 25-1210 T790M/L858R): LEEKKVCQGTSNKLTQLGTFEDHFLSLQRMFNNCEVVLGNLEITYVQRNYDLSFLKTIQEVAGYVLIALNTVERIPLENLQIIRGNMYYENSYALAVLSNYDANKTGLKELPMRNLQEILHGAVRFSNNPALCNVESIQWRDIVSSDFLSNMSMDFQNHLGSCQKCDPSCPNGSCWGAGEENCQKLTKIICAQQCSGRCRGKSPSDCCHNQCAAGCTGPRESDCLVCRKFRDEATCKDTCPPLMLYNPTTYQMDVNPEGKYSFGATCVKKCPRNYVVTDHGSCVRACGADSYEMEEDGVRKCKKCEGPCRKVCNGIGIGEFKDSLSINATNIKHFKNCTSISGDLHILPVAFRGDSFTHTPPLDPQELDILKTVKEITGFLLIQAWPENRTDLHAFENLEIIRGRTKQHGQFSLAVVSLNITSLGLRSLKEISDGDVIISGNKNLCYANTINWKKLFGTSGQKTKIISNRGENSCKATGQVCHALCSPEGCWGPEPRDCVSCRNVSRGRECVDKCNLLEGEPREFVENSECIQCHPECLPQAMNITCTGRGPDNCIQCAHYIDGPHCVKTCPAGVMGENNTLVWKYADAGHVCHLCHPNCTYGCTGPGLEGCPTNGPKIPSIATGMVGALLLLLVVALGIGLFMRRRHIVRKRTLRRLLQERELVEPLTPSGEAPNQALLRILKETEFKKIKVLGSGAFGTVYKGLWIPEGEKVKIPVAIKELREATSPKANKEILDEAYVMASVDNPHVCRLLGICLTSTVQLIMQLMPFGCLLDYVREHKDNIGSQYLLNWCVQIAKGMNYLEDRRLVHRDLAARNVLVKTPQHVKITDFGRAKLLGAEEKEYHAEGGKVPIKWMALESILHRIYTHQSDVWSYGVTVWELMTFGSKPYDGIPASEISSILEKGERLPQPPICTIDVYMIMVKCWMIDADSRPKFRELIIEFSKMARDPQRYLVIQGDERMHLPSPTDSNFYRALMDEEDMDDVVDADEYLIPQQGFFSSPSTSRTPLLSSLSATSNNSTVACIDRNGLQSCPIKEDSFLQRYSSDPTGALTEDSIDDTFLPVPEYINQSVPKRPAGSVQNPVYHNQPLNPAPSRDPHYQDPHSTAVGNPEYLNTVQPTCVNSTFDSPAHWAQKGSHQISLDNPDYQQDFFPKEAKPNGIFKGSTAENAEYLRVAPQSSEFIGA
Chain of EGFR Δ746-750 mutant (P00533 other isoform, or with tags, fused parts or gaps del 1-668/del 746-750 limits assumed): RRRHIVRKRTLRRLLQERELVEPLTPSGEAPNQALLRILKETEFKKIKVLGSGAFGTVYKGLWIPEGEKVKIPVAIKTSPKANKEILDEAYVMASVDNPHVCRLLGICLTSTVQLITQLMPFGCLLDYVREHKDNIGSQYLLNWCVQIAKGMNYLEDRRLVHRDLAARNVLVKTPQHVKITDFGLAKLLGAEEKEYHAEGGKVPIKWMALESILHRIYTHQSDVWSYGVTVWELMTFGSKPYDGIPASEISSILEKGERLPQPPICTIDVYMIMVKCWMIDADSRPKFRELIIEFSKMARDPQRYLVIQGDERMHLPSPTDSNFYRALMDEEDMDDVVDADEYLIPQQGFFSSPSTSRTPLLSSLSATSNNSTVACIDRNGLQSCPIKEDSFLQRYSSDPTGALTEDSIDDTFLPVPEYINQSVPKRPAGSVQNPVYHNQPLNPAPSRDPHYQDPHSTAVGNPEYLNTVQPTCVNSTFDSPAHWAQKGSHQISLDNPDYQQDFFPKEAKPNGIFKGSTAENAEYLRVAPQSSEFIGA
Chain of EGFR L858R/T790M/C797S mutant (P00533 25-1210 T790M/C797S/L858R): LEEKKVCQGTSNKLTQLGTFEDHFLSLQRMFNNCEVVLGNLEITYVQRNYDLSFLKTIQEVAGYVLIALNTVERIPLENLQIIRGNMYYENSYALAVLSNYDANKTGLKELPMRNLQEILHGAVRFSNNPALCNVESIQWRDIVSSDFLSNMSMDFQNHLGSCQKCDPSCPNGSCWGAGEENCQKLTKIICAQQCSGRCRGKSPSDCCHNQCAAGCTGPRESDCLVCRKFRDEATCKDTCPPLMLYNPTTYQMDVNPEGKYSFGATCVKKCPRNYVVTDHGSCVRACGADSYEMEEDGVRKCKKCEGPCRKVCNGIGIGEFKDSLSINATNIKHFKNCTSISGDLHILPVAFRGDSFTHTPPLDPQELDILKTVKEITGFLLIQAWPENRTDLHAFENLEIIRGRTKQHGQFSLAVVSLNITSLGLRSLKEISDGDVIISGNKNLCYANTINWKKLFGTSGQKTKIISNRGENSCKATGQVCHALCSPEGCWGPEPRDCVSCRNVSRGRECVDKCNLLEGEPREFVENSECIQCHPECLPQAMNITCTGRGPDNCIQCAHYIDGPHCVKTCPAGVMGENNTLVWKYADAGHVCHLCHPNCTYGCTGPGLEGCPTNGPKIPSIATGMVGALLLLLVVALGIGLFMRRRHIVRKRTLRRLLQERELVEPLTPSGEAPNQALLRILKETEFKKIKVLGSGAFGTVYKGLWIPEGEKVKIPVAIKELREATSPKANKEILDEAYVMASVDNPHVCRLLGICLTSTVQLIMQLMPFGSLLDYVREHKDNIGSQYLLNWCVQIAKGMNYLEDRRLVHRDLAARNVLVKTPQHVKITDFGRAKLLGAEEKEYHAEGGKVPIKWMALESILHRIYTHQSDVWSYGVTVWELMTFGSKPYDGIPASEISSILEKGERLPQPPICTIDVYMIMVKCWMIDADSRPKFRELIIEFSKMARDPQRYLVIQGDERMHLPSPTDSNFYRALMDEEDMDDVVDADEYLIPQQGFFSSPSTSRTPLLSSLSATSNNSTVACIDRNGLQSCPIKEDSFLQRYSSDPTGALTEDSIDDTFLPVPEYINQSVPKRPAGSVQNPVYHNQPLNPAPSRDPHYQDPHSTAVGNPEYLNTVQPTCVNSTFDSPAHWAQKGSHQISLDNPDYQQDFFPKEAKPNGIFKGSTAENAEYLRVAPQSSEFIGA
Chain of EGFR Δ746-750/C797S mutant (P00533 other isoform, or with tags, fused parts or gaps C797S/del 1-668/del 746-750 limits assumed): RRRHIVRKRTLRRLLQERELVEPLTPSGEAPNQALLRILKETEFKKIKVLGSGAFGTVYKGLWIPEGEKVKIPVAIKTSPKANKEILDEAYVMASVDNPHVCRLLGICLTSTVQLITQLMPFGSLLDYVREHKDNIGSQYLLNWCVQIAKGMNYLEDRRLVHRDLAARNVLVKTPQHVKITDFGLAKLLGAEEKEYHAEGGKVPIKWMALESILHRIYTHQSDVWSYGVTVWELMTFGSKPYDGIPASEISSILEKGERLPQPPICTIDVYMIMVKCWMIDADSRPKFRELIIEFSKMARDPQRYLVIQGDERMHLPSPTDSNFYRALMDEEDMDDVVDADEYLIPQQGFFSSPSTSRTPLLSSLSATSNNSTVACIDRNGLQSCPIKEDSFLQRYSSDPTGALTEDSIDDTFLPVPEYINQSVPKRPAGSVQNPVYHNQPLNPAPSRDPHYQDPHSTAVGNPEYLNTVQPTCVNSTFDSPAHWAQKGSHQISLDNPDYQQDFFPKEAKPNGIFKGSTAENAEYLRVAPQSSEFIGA

Row | Structure (SMILES) | IC50 [1] [nM] | IC50 [2] [nM] | IC50 [3] [nM] | IC50 [4] [nM] | IC50 [5] [nM] | IC50 [6] [nM] | IC50 [7] [nM]
1 | CN(C)Cc1ccc2c(c1)O[C@@H]1CCN(CCOc3c(cnn3C)-c3ccc4[nH]nc(c4c3)/C=C/2)C1=O [Example 94, (10R,16E)-13-[(dimethylamino)methyl]-3-methyl-3,5,6,9,10,19-hexahydro-8H-20,22-etheno-7,10-methanodipyrazolo[3,4-i:4′,3′-m][1,8,5]benzodioxazacyclooctadecin-25-one] | 44.1 | 17.2 | 17.6 | 14.1 | 9.99 | 0.82 | 5.75
2 | Cc1c2c(nn1CCN1CCCC1)CN(C)C[C@@H](C)Oc1c(cnn1C)-c1ccc3[nH]nc(c3c1)/C=C/2 [Example 121, (10R,17E)-8,10,12,16-tetramethyl-15-[2-(pyrrolidin-1-yl)ethyl]-2,10,11,12,13,15-hexahydro-8H-3,5-ethenotripyrazolo[3,4-f:3′,4′-j:4″,3″- n][1,4]oxazacyclopentadecine] | 296 | 283 | 40.7 | 41.3 | 94.1 | 6.14 | 13
3 | Cc1c2c(nn1CCO)CN(C)C[C@H](C)Oc1c(cnn1C)-c1ccc3[nH]nc(c3c1)/C=C/2 [Example 60, 2-[(10S,17E)-8,10,12,16-tetramethyl-2,8,10,11,12,13-hexahydro-15H-3,5-ethenotripyrazolo[3,4-f:3′,4′-j:4″,3″- n][1,4]oxazacyclopentadecin-15-yl]ethan-1-ol] | 581 | 678 | 89.7 | 89.4 | 101 | 6.86 | 3.27
4 | Cc1nn([C@H]2COCC[C@@H]2O)c2c1/C=C/c1n[nH]c3ccc(cc13)-c1cnn(C)c1OCCCO2 (racemic) [Example 86, (rac)-1,5-anhydro-2,4-dideoxy-2-[(17E)-8,16-dimethyl-2,8,11,12-tetrahydro-10H,14H-3,5-etheno[1,5]dioxacyclopentadecino[10,11-c:15,14-c′:6,7-c″ ]tripyrazol-14-yl]-L-threo-pentitol] | > 1000 | > 1000 | > 1000 | > 1000 | > 1000 | > 1000 | > 1000
5 | Cc1nn(C)c2c1CN(C)C[C@H](C)Oc1c(cnn1C)-c1ccc3[nH]nc(c3c1)/C=C/2 [Example 130, (10S,17E)-8,10,12,14,16-pentamethyl-2,10,11,12,13,16-hexahydro-8H-3,5-ethenotripyrazolo[4,3-f:3′,4′-j:4″,3″- n][1,4]oxazacyclopentadecine] | 457 | 851 | 81.1 | 38.4 | 84.3 | 7.32 | 5.66
6 | Cc1nn([C@@H]2COC[C@H]2O)c2c1/C=C/c1n[nH]c3ccc(cc13)-c1cnn(C)c1OCCCO2 (single isomer, unassigned) [Example 77] | > 1000 | 1880 | 749 | 803 | 2080 | 427 | 453
7 | COCc1nn(C)c2c1/C=C/c1n[nH]c3ccc(cc13)-c1cnn(C)c1OCCCO2 [Ex. 11, (17E)-16-(methoxymethyl)-8,14-dimethyl-2,11,12,14-tetrahydro-8H,10H-3,5-etheno[1,5]dioxacyclopentadecino[10,11-c:15,14-c′:6,7-c″]tripyrazole] | > 1000 | > 1000 | 850 | 798 | 1580 | 153 | 218
8 | Cc1nn(C)c2c1/C=C/c1n[nH]c3ccc(cc13)-c1cnn(C)c1CN(C)[C@@H](C)CO2 [Example 106, (11S,17E)-8,10,11,14,16-pentamethyl-2,9,10,11,12,14-hexahydro-8H-3,5-ethenotripyrazolo[3,4-f:4′,3′-j:4″,3″-n][1,4]oxazacyclopentadecine] | 107 | 111 | 57.6 | 68.5 | 34.8 | 2.49 | 10.8
9 | Cn1ncc2c1OCCN1CC[C@@H](Oc3ccc(C(C)(C)O)cc3/C=C/c3n[nH]c4ccc-2cc34)C1=O [Example 135, (10R,16E)-14-(2-hydroxypropan-2-yl)-3-methyl-3,5,6,9,10,19-hexahydro-8H-20,22-etheno-7,10-methanodipyrazolo[3,4-i:4′,3′-m][1,8,5]benzodioxazacyclooctadecin-25-one] | 829 | 802 | 48.3 | 97.7 | 128 | 20 | 38.6
10 | C[C@H]1CN(C)Cc2cnn(C)c2/C=C/c2n[nH]c3ccc(cc23)-c2cnn(C)c2O1 [Example 113, (10S,17E)-8,10,12,16-tetramethyl-2,10,11,12,13,16-hexahydro-8H-3,5-ethenotripyrazolo[4,3-f:3′,4′-j:4″,3″-n][1,4]oxazacyclopentadecine] | 488 | 727 | 69.9 | 67.4 | 96.8 | 8.66 | 9.91
11 | Cc1c2c(nn1CCO)CNC[C@H](C)Oc1c(cnn1C)-c1ccc3[nH]nc(c3c1)/C=C/2 [Example 49, 2-[(10S,17E)-8,10,16-trimethyl-2,8,10,11,12,13-hexahydro-15H-3,5-ethenotripyrazolo[3,4-f:3′,4′-j:4″,3″- n][1,4]oxazacyclopentadecin-15-yl]ethan-1-ol] | > 1000 | > 1000 | 617 | 1040 | 862 | 126 | 84.4
12 | CCc1nn(C)c2c1/C=C/c1n[nH]c3ccc(cc13)-c1cnn(C)c1OCC[C@@H](C)O2 [Ex. 15, (12R,17E)-16-ethyl-8,12,14-trimethyl-2,11,12,14-tetrahydro-8H,10H-3,5-etheno[1,5]dioxacyclopentadecino[10,11-c:15,14-c′:6,7-c″]tripyrazole] | 419 | 286 | 139 | 27.5 | 105 |  | 26.4
13 | CCc1nn(C)c2c1/C=C/c1n[nH]c3ccc(cc13)-c1cnn(C)c1OCC[C@H](C)O2 [Ex. 14, (12S,17E)-16-ethyl-8,12,14-trimethyl-2,11,12,14-tetrahydro-8H,10H-3,5-etheno[1,5]dioxacyclopentadecino[10,11-c:15,14-c′:6,7-c″]tripyrazole] | 339 | 312 | 124 | 34.7 | 63.8 |  | 19.5
14 | Cc1c2c(nn1C)CN(C)CCOc1c(cnn1C)-c1ccc3[nH]nc(c3c1)/C=C/2 [Example 44, (17E)-8,12,15,16-tetramethyl-2,10,11,12,13,15-hexahydro-8H-3,5-ethenotripyrazolo[3,4-f:3′,4′-j:4″,3″- n][1,4]oxazacyclopentadecine] | 1460 | > 1000 | 112 | 130 | 285 |  | 27
15 | CCc1nn(C)c2c1/C=C/c1n[nH]c3ccc(cc13)-c1cnn(C)c1O[C@@H](C)CCO2 [Ex. 37, (10S,17E)-16-ethyl-8,10,14-trimethyl-2,11,12,14-tetrahydro-8H,10H-3,5-etheno[1,5]dioxacyclopentadecino[10,11-c:15,14-c′:6,7-c″]tripyrazole] | 157 | 212 | 64 | 49.9 | 41.8 |  | 17.3
